Key:
AMBEL (Ragweed, Common) = test: Postemergence herbicidal evaluation; assay type: in vivo, Ambrosia artemisifolia; conditions: for herbicidal rating AMBEL: postemergence
Method in brief: (§1)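 Compound is applied as a foliar spray to seedlings about two weeks old, formulated in equal parts acetone and water with 0.5% TWEEN 20 and delivered at 40 psi to give about 0.0156–0.500 kg per hectare. Injury is rated visually 0–9 after four to five weeks.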

CASOB (Sicklepod) [1] = test: Postemergence herbicidal evaluation; assay type: in vivo, Cassia obtusifolia; conditions: for herbicidal rating CASOB: postemergence
Method in brief: as §1

[2] = tested on: CHEAL (Lambsquarters, Common); test: Postemergence herbicidal evaluation; assay type: in vivo, Chenopodium album; conditions: for herbicidal rating CHEAL: postemergence
Method in brief: as §1

GALAP (Galium) [3] = test: Postemergence herbicidal evaluation; assay type: in vivo, Galium aparine; conditions: for herbicidal rating GALAP: postemergence
Method in brief: as §1

ECHCG (Barnyardgrass) = test: Postemergence herbicidal evaluation; assay type: in vivo, Echinochloa crus-galli; conditions: for herbicidal rating ECHCG: postemergence
Method in brief: as §1

SETVI (Foxtail, Green) = test: Postemergence herbicidal evaluation; assay type: in vivo, Setaria viridis; conditions: for herbicidal rating SETVI: postemergence
Method in brief: as §1

[4] = tested on: GLXMAW (Soybean, Williams); test: Postemergence herbicidal evaluation; assay type: in vivo, Glycine max, (L.) Merr. cv Williams; conditions: for herbicidal rating GLXMAW: postemergence
Method in brief: as §1

ORYSAT (Rice, Tebonnet) = test: Postemergence herbicidal evaluation; assay type: in vivo, Oryza sativa, (L.) Tebonnet; conditions: for herbicidal rating ORYSAT: postemergence
Method in brief: as §1

CASOB (Sicklepod) [5] = test: Preemergence herbicidal evaluation; assay type: in vivo, Cassia obtusifolia; conditions: rated 4-5 weeks after treatment
Method in brief: (§2)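 Preemergence soil application of compound, sprayed in aqueous acetone at rates equivalent to about 0.0156 to 0.500 kg per hectare onto freshly sown cups. Plant response was judged by eye on a 0-9 scale four to five weeks later.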

GALAP (Galium) [6] = test: Preemergence herbicidal evaluation; assay type: in vivo, Galium aparine; conditions: rated 4-5 weeks after treatment
Method in brief: as §2

ZEAMX (Corn, Field) = test: Preemergence herbicidal evaluation; assay type: in vivo, Zea mays; conditions: rated 4-5 weeks after treatment
Method in brief: as §2

CYPIR (Rice Flatsedge) = test: Preemergence weed control under flooded paddy conditions; assay type: in vivo, Cyperus iria; conditions: rated 3-4 weeks after treatment
Method in brief: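 Flooded-pot preemergence screen with silt loam and seeds in the upper 0.5 cm. Dose about 0.0313 to 0.500 kg/ha, delivered into flood water; visual 0-9 score after 3 to 4 weeks.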

CYPSE (Flatsedge) = test: as above; assay type: in vivo, Cyperus serotinus; conditions: rated 3-4 weeks after treatment
Method in brief: (§3)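 Silt loam, seeds in top 0.5 cm; flood held 1.5-3 cm; test cpd as acetone/water 50/50 into flood water, ~0.0313-0.500 kg/ha a.i.; greenhouse 3-4 wk; visual 0-9 score vs control.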

[7] = tested on: SAGPY (Arrowhead (Pygmaea)); test: as above; assay type: in vivo, Sagittaria pygmaea; conditions: rated 3-4 weeks after treatment
Method in brief: as §3

[8] = rate 0.0156 kg/ha, rating scale 0-9
[9] = rate 0.0313 kg/ha, rating scale 0-9
[10] = rate 0.0625 kg/ha, rating scale 0-9
[11] = rate 0.1250 kg/ha, rating scale 0-9
[12] = rate 0.2500 kg/ha, rating scale 0-9

## Cc1ccc(CN2C(=O)CSC2=Nc2cc(-n3c(=O)cc(C(F)(F)F)n(C)c3=O)c(F)cc2Cl)cc1C [Compound 147, 3-{4-Chloro-5-{[3-(3,4-dimethylbenzyl)-4-oxo-2-thiazolidinylidene]amino}-2-fluorophenyl}-1-methyl-6-(trifluoromethyl)-2,4(1H,3H)-pyrimidinedione]
AMBEL (Ragweed, Common); rate 0.0156 kg/ha
  herbicidal rating AMBEL: 6.0
AMBEL (Ragweed, Common); rate 0.0313 kg/ha
  herbicidal rating AMBEL: 9.0
AMBEL (Ragweed, Common); rate 0.0625 kg/ha
  herbicidal rating AMBEL: 7.0
CASOB (Sicklepod) [1]; rate 0.0156 kg/ha
  herbicidal rating CASOB: 1.0
CASOB (Sicklepod) [1]; rate 0.0313 kg/ha
  herbicidal rating CASOB: 1.0
CASOB (Sicklepod) [1]; rate 0.0625 kg/ha
  herbicidal rating CASOB: 2.0
[2]; rate 0.0156 kg/ha
  herbicidal rating CHEAL: 5.0
[2]; rate 0.0313 kg/ha
  herbicidal rating CHEAL: 6.0
[2]; rate 0.0625 kg/ha
  herbicidal rating CHEAL: 9.0
GALAP (Galium) [3]; rate 0.0156 kg/ha
  herbicidal rating GALAP: 0.0
GALAP (Galium) [3]; rate 0.0313 kg/ha
  herbicidal rating GALAP: 1.0
GALAP (Galium) [3]; rate 0.0625 kg/ha
  herbicidal rating GALAP: 3.0
ECHCG (Barnyardgrass); rate 0.0156 kg/ha
  herbicidal rating ECHCG: 1.0
ECHCG (Barnyardgrass); rate 0.0313 kg/ha
  herbicidal rating ECHCG: 2.0
ECHCG (Barnyardgrass); rate 0.0625 kg/ha
  herbicidal rating ECHCG: 1.0
SETVI (Foxtail, Green); rate 0.0156 kg/ha
  herbicidal rating SETVI: 1.0
SETVI (Foxtail, Green); rate 0.0313 kg/ha
  herbicidal rating SETVI: 1.0
SETVI (Foxtail, Green); rate 0.0625 kg/ha
  herbicidal rating SETVI: 2.0
[4]; rate 0.0156 kg/ha
  herbicidal rating GLXMAW: 5.5
[4]; rate 0.0313 kg/ha
  herbicidal rating GLXMAW: 5.5
[4]; rate 0.0625 kg/ha
  herbicidal rating GLXMAW: 6.0
ORYSAT (Rice, Tebonnet); rate 0.0156 kg/ha
  herbicidal rating ORYSAT: 1.5
ORYSAT (Rice, Tebonnet); rate 0.0313 kg/ha
  herbicidal rating ORYSAT: 2.5
ORYSAT (Rice, Tebonnet); rate 0.0625 kg/ha
  herbicidal rating ORYSAT: 3.5
CASOB (Sicklepod) [5]; [8]
  Preemergence herbicidal rating CASOB: 0.0
CASOB (Sicklepod) [5]; [9]
  Preemergence herbicidal rating CASOB: 0.0
CASOB (Sicklepod) [5]; [10]
  Preemergence herbicidal rating CASOB: 0.0
CASOB (Sicklepod) [5]; [11]
  Preemergence herbicidal rating CASOB: 0.0
CASOB (Sicklepod) [5]; [12]
  Preemergence herbicidal rating CASOB: 5.0
GALAP (Galium) [6]; [8]
  Preemergence herbicidal rating GALAP: 0.0
GALAP (Galium) [6]; [9]
  Preemergence herbicidal rating GALAP: 0.0
GALAP (Galium) [6]; [10]
  Preemergence herbicidal rating GALAP: 0.0
GALAP (Galium) [6]; [11]
  Preemergence herbicidal rating GALAP: 1.0
GALAP (Galium) [6]; [12]
  Preemergence herbicidal rating GALAP: 1.0
ZEAMX (Corn, Field); [8]
  Preemergence herbicidal rating ZEAMX: 1.0
ZEAMX (Corn, Field); [9]
  Preemergence herbicidal rating ZEAMX: 1.0
ZEAMX (Corn, Field); [10]
  Preemergence herbicidal rating ZEAMX: 0.0
ZEAMX (Corn, Field); [11]
  Preemergence herbicidal rating ZEAMX: 1.0
ZEAMX (Corn, Field); [12]
  Preemergence herbicidal rating ZEAMX: 2.0
CYPIR (Rice Flatsedge); 0.0313 kg/ha
  herbicidal effect rating, CYPIR: 4.0
CYPIR (Rice Flatsedge); 0.0625 kg/ha
  herbicidal effect rating, CYPIR: 4.0
CYPIR (Rice Flatsedge); 0.1250 kg/ha
  herbicidal effect rating, CYPIR: 7.0
CYPIR (Rice Flatsedge); 0.2500 kg/ha
  herbicidal effect rating, CYPIR: 7.0
CYPSE (Flatsedge); 0.2500 kg/ha
  herbicidal effect rating, CYPSE: 0.0
[7]; 0.0313 kg/ha
  herbicidal effect rating, SAGPY: 0.0
[7]; 0.0625 kg/ha
  herbicidal effect rating, SAGPY: 0.0
[7]; 0.1250 kg/ha
  herbicidal effect rating, SAGPY: 0.0
[7]; 0.2500 kg/ha
  herbicidal effect rating, SAGPY: 2.0

## CCCN1C(=O)CSC1=Nc1cc(-n2c(=O)cc(C(F)(F)F)n(C)c2=O)c(F)cc1Cl [Compound 171, 3-{4-Chloro-2-fluoro-5-[(4-oxo-3-propyl-2-thiazolidinylidene)amino]phenyl}-1-methyl-6-(trifluoromethyl)-2,4 (1H, 3H)-pyrimidinedione]
AMBEL (Ragweed, Common); Rate 0.0156 kg/ha
  Postemergence herbicidal rating AMBEL: 6.0
AMBEL (Ragweed, Common); Rate 0.0313 kg/ha
  Postemergence herbicidal rating AMBEL: 9.0
AMBEL (Ragweed, Common); rate 0.0625 kg/ha
  herbicidal rating AMBEL: 9.0
CASOB (Sicklepod) [1]; Rate 0.0156 kg/ha
  Postemergence herbicidal rating CASOB: 2.0
CASOB (Sicklepod) [1]; Rate 0.0313 kg/ha
  Postemergence herbicidal rating CASOB: 3.0
CASOB (Sicklepod) [1]; rate 0.0625 kg/ha
  herbicidal rating CASOB: 4.0
[2]; Rate 0.0156 kg/ha
  Postemergence herbicidal rating CHEAL: 7.0
[2]; Rate 0.0313 kg/ha
  Postemergence herbicidal rating CHEAL: 9.0
[2]; rate 0.0625 kg/ha
  herbicidal rating CHEAL: 9.0
GALAP (Galium) [3]; Rate 0.0156 kg/ha
  Postemergence herbicidal rating GALAP: 3.0
GALAP (Galium) [3]; Rate 0.0313 kg/ha
  Postemergence herbicidal rating GALAP: 6.0
GALAP (Galium) [3]; rate 0.0625 kg/ha
  herbicidal rating GALAP: 7.0
ECHCG (Barnyardgrass); Rate 0.0156 kg/ha
  Postemergence herbicidal rating ECHCG: 4.0
ECHCG (Barnyardgrass); Rate 0.0313 kg/ha
  Postemergence herbicidal rating ECHCG: 4.0
ECHCG (Barnyardgrass); rate 0.0625 kg/ha
  herbicidal rating ECHCG: 3.0
SETVI (Foxtail, Green); Rate 0.0156 kg/ha
  Postemergence herbicidal rating SETVI: 7.0
SETVI (Foxtail, Green); Rate 0.0313 kg/ha
  Postemergence herbicidal rating SETVI: 7.0
SETVI (Foxtail, Green); rate 0.0625 kg/ha
  herbicidal rating SETVI: 9.0
[4]; Rate 0.0156 kg/ha
  Postemergence herbicidal rating GLXMAW: 5.5
[4]; Rate 0.0313 kg/ha
  Postemergence herbicidal rating GLXMAW: 6.5
[4]; rate 0.0625 kg/ha
  herbicidal rating GLXMAW: 7.0
ORYSAT (Rice, Tebonnet); Rate 0.0156 kg/ha
  Postemergence herbicidal rating ORYSAT: 3.5
ORYSAT (Rice, Tebonnet); Rate 0.0313 kg/ha
  Postemergence herbicidal rating ORYSAT: 4.0
ORYSAT (Rice, Tebonnet); rate 0.0625 kg/ha
  herbicidal rating ORYSAT: 5.0
CASOB (Sicklepod) [5]; 0.0156 kg/ha
  Preemergence herbicidal rating CASOB: 4.0
CASOB (Sicklepod) [5]; 0.0313 kg/ha
  Preemergence herbicidal rating CASOB: 5.0
CASOB (Sicklepod) [5]; 0.0625 kg/ha
  Preemergence herbicidal rating CASOB: 2.0
CASOB (Sicklepod) [5]; 0.1250 kg/ha
  Preemergence herbicidal rating CASOB: 4.0
CASOB (Sicklepod) [5]; 0.2500 kg/ha
  Preemergence herbicidal rating CASOB: 9.0
GALAP (Galium) [6]; 0.0156 kg/ha
  Preemergence herbicidal rating GALAP: 0.0
GALAP (Galium) [6]; 0.0313 kg/ha
  Preemergence herbicidal rating GALAP: 0.0
GALAP (Galium) [6]; 0.1250 kg/ha
  Preemergence herbicidal rating GALAP: 5.0
GALAP (Galium) [6]; 0.2500 kg/ha
  Preemergence herbicidal rating GALAP: 6.0
ZEAMX (Corn, Field); 0.0156 kg/ha
  Preemergence herbicidal rating ZEAMX: 2.0
ZEAMX (Corn, Field); 0.0313 kg/ha
  Preemergence herbicidal rating ZEAMX: 6.0
ZEAMX (Corn, Field); 0.0625 kg/ha
  Preemergence herbicidal rating ZEAMX: 8.0
ZEAMX (Corn, Field); 0.1250 kg/ha
  Preemergence herbicidal rating ZEAMX: 8.0
ZEAMX (Corn, Field); 0.2500 kg/ha
  Preemergence herbicidal rating ZEAMX: 9.0
CYPIR (Rice Flatsedge); 0.0313 kg/ha
  herbicidal effect rating, CYPIR: 3.0
CYPIR (Rice Flatsedge); 0.0625 kg/ha
  herbicidal effect rating, CYPIR: 9.0
CYPIR (Rice Flatsedge); 0.1250 kg/ha
  herbicidal effect rating, CYPIR: 9.0
CYPIR (Rice Flatsedge); 0.2500 kg/ha
  herbicidal effect rating, CYPIR: 9.0
CYPSE (Flatsedge); 0.0313 kg/ha
  herbicidal effect rating, CYPSE: 9.0
CYPSE (Flatsedge); 0.0625 kg/ha
  herbicidal effect rating, CYPSE: 9.0
CYPSE (Flatsedge); 0.1250 kg/ha
  herbicidal effect rating, CYPSE: 9.0
CYPSE (Flatsedge); 0.2500 kg/ha
  herbicidal effect rating, CYPSE: 9.0
[7]; 0.0313 kg/ha
  herbicidal effect rating, SAGPY: 6.0
[7]; 0.0625 kg/ha
  herbicidal effect rating, SAGPY: 7.0
[7]; 0.1250 kg/ha
  herbicidal effect rating, SAGPY: 8.0
[7]; 0.2500 kg/ha
  herbicidal effect rating, SAGPY: 9.0
